Results: US6339045B1, “N-(unsubstituted or substituted)-4-substituted-6-(unsubstituted or substituted)phenoxy-2-pyridinecarboxamides or thiocarboxamides, processes for producing the same, and herbicides” (Kureha Kagaku Kogyo Kabushiki Kaisha, priority 1995, dated 2002)

How the values were obtained:
Assay in all cases: Herbicidal effect by foliage and soil treatment
Assay type in all cases: in vivo
Settings in all cases: 10 g ai/10a, evaluated after 14 days
[1] = test system: velvetleaf (Abutilon theophrasti)
Outline: (§1)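 Potted seedlings at cotyledon-to-bifoliate stage were sprayed with compound in Tween 20/water at a predetermined rate and grown in a greenhouse at 19 to 25° C. Growth was rated against untreated plants after 14 days.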

[2] = test system: kediock (Sinapis arvensis)
Outline: as §1

[3] = test system: field bindweed (Convolvulus arvensis)
Outline: as §1

[4] = test system: redroot pigweed (Amaranthus retroflexus)
Outline: as §1

[5] = test system: black nightshade (Solanum nigrum)
Outline: as §1

[6] = test system: common blackjack (Bidens pilosa)
Outline: as §1

[7] = test system: ivyleafspeedwell (Veronica hederaefolia)
Outline: as §1

[8] = test system: cleavers (Galium aparine)
Outline: as §1

[9] = test system: wild chamomile (Matricaria chamomilla)
Outline: as §1

[10] = test system: sicklepod (Cassia obtusifolia)
Outline: as §1

[11] = test system: common chickweed (Stellaria media)
Outline: as §1

Structure (SMILES)	herbicidal activity rating, AT (Abutilon theophrasti) [1]	herbicidal activity rating, SA (Sinapis arvensis) [2]	herbicidal activity rating, CA (Convolvulus arvensis) [3]	herbicidal activity rating, AR (Amaranthus retroflexus) [4]	herbicidal activity rating, SN (Solanum nigrum) [5]	herbicidal activity rating, BP (Bidens pilosa) [6]	herbicidal activity rating, VH (Veronica hederaefolia) [7]	herbicidal activity rating, GA (Galium aparine) [8]	herbicidal activity rating, MC (Matricaria chamomilla) [9]	herbicidal activity rating, CO (Cassia obtusifolia) [10]	herbicidal activity rating, SM (Stellaria media) [11]
COc1cc(Oc2cccc(C(F)(F)F)c2)nc(C(=O)NN(C)C)c1 [Compound I-109]	5 (percentage of weeds killed was not less than 80%)	5 (percentage of weeds killed was not less than 80%)	4 (percentage of weeds killed was not less than 60% and less than 80%)	5 (percentage of weeds killed was not less than 80%)	5 (percentage of weeds killed was not less than 80%)	5 (percentage of weeds killed was not less than 80%)	5 (percentage of weeds killed was not less than 80%)	5 (percentage of weeds killed was not less than 80%)	4 (percentage of weeds killed was not less than 60% and less than 80%)	5 (percentage of weeds killed was not less than 80%)	4 (percentage of weeds killed was not less than 60% and less than 80%)
COc1cc(Oc2cccc(C(F)(F)F)c2)nc(C(N)=O)c1 [Compound I-123, 4-methoxy-6-{3-(trifluoromethyl)phenoxy}-2-pyridine carboxamide]	3 (percentage of weeds killed was not less than 40% and less than 60%)	5 (percentage of weeds killed was not less than 80%)	4 (percentage of weeds killed was not less than 60% and less than 80%)	5 (percentage of weeds killed was not less than 80%)	5 (percentage of weeds killed was not less than 80%)	2 (percentage of weeds killed was not less than 20% and less than 40%)	5 (percentage of weeds killed was not less than 80%)	5 (percentage of weeds killed was not less than 80%)	1 (percentage of weeds killed was less than 20%)	2 (percentage of weeds killed was not less than 20% and less than 40%)	5 (percentage of weeds killed was not less than 80%)
COc1cc(Oc2cccc(C(F)(F)F)c2)nc(C(=O)NNC(C)(C)C)c1 [Compound I-126]	5 (percentage of weeds killed was not less than 80%)	5 (percentage of weeds killed was not less than 80%)	4 (percentage of weeds killed was not less than 60% and less than 80%)	5 (percentage of weeds killed was not less than 80%)	5 (percentage of weeds killed was not less than 80%)	5 (percentage of weeds killed was not less than 80%)	5 (percentage of weeds killed was not less than 80%)	5 (percentage of weeds killed was not less than 80%)	4 (percentage of weeds killed was not less than 60% and less than 80%)	5 (percentage of weeds killed was not less than 80%)	5 (percentage of weeds killed was not less than 80%)
COc1cc(Oc2cccc(C(F)(F)F)c2)nc(C(=O)NCS(C)(=O)=O)c1 [Compound I-127]	5 (percentage of weeds killed was not less than 80%)	5 (percentage of weeds killed was not less than 80%)	5 (percentage of weeds killed was not less than 80%)	5 (percentage of weeds killed was not less than 80%)	5 (percentage of weeds killed was not less than 80%)	5 (percentage of weeds killed was not less than 80%)	5 (percentage of weeds killed was not less than 80%)	5 (percentage of weeds killed was not less than 80%)	4 (percentage of weeds killed was not less than 60% and less than 80%)	5 (percentage of weeds killed was not less than 80%)	5 (percentage of weeds killed was not less than 80%)
CCN(CC)C(=O)c1cc(OC)cc(Oc2cccc(C(F)(F)F)c2)n1 [Compound I-200, N,N-diethyl-4-methoxy-6-{3-(trifluoromethyl)phenoxy}-2-pyridine carboxamide]	5 (percentage of weeds killed was not less than 80%)	5 (percentage of weeds killed was not less than 80%)	5 (percentage of weeds killed was not less than 80%)	5 (percentage of weeds killed was not less than 80%)	5 (percentage of weeds killed was not less than 80%)	2 (percentage of weeds killed was not less than 20% and less than 40%)	5 (percentage of weeds killed was not less than 80%)	5 (percentage of weeds killed was not less than 80%)	4 (percentage of weeds killed was not less than 60% and less than 80%)	5 (percentage of weeds killed was not less than 80%)	5 (percentage of weeds killed was not less than 80%)
CCN(C)C(=O)c1cc(OC)cc(Oc2cccc(C(F)(F)F)c2)n1 [Compound I-201]	4 (percentage of weeds killed was not less than 60% and less than 80%)	5 (percentage of weeds killed was not less than 80%)	5 (percentage of weeds killed was not less than 80%)	5 (percentage of weeds killed was not less than 80%)	5 (percentage of weeds killed was not less than 80%)	2 (percentage of weeds killed was not less than 20% and less than 40%)	5 (percentage of weeds killed was not less than 80%)	5 (percentage of weeds killed was not less than 80%)	2 (percentage of weeds killed was not less than 20% and less than 40%)	5 (percentage of weeds killed was not less than 80%)	5 (percentage of weeds killed was not less than 80%)
